# Experimental data published in patent US8426425B2, “Aminopyrimidines useful as inhibitors of protein kinases” (Vertex Pharmaceuticals Incorporated, priority 2006, dated 2013).
# Target: T1, GSK-3β (AA 1-420) (Homo sapiens, UniProt P49841)
# T1 construct: GSK-3β (AA 1-420)
# Assay: GSK-3 Inhibition Assay (standard coupled enzyme system)
# Type: biochemical
# Conditions: 20 nM GSK-3β, 20 μM ATP, 300 μM peptide, 30° C.
# Description: Compounds of the present invention were screened for their ability to inhibit GSK-3β (AA 1-420) activity using a standard coupled enzyme system (Fox et al., Protein Sci. 1998, 7, 2249). Reactions were carried out in a solution containing 100 mM HEPES (pH 7.5), 10 mM MgCl2, 25 mM NaCl, 300 μM NADH, 1 mM DTT and 1.5% DMSO. Final substrate concentrations in the assay were 20 μM ATP (Sigma Chemicals, St Louis, Mo.) and 300 μM peptide (American Peptide, Sunnyvale, Calif.). Reactions were carried out at 30° C. and 20 nM GSK-3β. Final concentrations of the components of the coupled enzyme system were 2.5 mM phosphoenolpyruvate, 300 μM NADH, 30 μg/ml pyruvate kinase and 10 μg/ml lactate dehydrogenase.
# An assay stock buffer solution was prepared containing all of the reagents listed above with the exception of ATP and the test compound of the present invention. The assay stock buffer solution (175 μl) was incubated in a 96 well plate with 5 μl of the test compound of the present invention at final concentrations spanning 0.002 μM to 30 μM at 30° C. for 10 min. Typically, a 12-point titration was conducted by preparing serial dilutions (from 10 mM compound stocks) with DMSO of the test compounds of the present invention in daughter plates. The reaction was initiated by the addition of 20 μl of ATP (final concentration 20 μM). Rates of reaction were obtained using a Molecular Devices Spectramax plate reader (Sunnyvale, Calif.) over 10 min at 30° C. The Ki values were determined from the rate data as a function of inhibitor concentration.
# T1 sequence (P49841 whole entry, species assumed, the tested form may be a part): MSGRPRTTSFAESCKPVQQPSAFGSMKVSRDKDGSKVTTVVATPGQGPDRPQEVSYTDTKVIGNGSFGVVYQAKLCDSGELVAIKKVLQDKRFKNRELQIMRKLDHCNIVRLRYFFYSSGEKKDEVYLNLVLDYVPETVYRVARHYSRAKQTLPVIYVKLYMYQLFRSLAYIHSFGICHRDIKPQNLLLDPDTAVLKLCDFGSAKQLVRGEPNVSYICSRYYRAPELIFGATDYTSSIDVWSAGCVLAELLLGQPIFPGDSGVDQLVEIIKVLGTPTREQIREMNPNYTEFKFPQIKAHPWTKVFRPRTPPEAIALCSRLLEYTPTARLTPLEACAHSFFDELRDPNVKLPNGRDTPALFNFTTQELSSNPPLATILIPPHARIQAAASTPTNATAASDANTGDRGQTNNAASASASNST
row,Structure (SMILES),Ki [nM]
1,Fc1ccc2[nH]nc(Nc3cc(N4CCC4)nc(C4CCCCC4)n3)c2c1 [Compound I-3],50 to 100
2,Cc1cc(Nc2cc(N3CCC3)nc(C3CCCCC3)n2)n[nH]1 [Compound I-2],< 50
3,"Fc1cnc2[nH]nc(Nc3cc(N4CCC4)nc(C4CCCCC4)n3)c2c1 [Compound I-1, N-(6-(azetidin-1-yl)-2-cyclohexylpyrimidin-4-yl)-5-fluoro-1H-pyrazolo[3,4-b]pyridin-3-amine]",< 50
